Here are results for 21 compounds from patent publication US11459339B2, “Biaryl derivative, preparation method thereof and pharmaceutical application thereof” (Abbisko Therapeutics Co., Ltd., priority 2018, dated 2022).

The target in experiment [1] is interaction between PD-1 and PD-L1 (Homo sapiens (Human), UniProt Q9NZQ7). As to the kind of experiment: PD1-PDL1 HTRF binding activity test (Cisbio PD-1/PD-L1 binding assay kit). Conditions: read-out: PD1-PDL1 HTRF Binding Activity IC50. On the procedure:
A. PD1-PDL1 HTRF Binding Activity Test
The effect of compounds and positive compounds of the examples of the present invention on the interaction between PD-1 and PD-L1 was determined by the PD-1/PD-L1 binding assay kit from Cisbio (#64ICP01PEG or 64ICP01PEH). The detailed experimental process was as follows:
1. Pre-diluted compound solution, 4 μL of Tag1-PD-L1 and 4 μL of Tag2-PD1 were added to each well of a 384-well plate;
3. After incubated for 2 hrs at room temperature or overnight at 4° C., plates were read on Envision of Pelkin Elmer; and readings at 665 nm and 620 nm were recorded, and the ratio of the two readings was taken as a reading for each well;
4. The reading of each well after compound treatment was compared with the reading of DMSO treated wells to obtain the percent inhibition of the compound; and
5. IC50 values of compounds and positive compounds of the examples of the present invention were determined by non-linear regression analysis of percent inhibition at different compound concentrations.
In general terms: In TR-FRET formats the signal depends on donor and acceptor labels being close together.

In experiment [2] the target is interaction between PD-1 and PD-L1 expressed on cell surfaces (Homo sapiens (Human), UniProt Q9NZQ7). As to the kind of experiment: Jurkat reporter gene cellular assay (Jurkat/NF-κB-luc/PD1 cells cocultured with Raji-PD-L1 cells, OKT-3 stimulation). The class given is cell-based. Conditions: NF-κB-luc reporter activation fold, 6 hrs; read-out: Cell Activity EC50. On the procedure:
B. Jurkat Reporter Gene Cellular Assay
The effect of compounds of the examples of the present invention and positive compounds on the interaction between PD-1 and PD-L1 expressed on cell surfaces, and the related influence on T cell functions, were determined by a Jurkat reporter gene cellular assay.
Briefly, the reporter gene plasmid of NF-κB-luc and the plasmid of human PD-1 were transfected into Jurkat cells to establish a stably transfected cell line capable of stably expressing both PD-1 and NF-κB-Luc reporter genes; the expression level of PD-1 on the cell surface was confirmed by flow cytometry: and the expression of the reporter gene was confirmed via the response of the reporter gene stimulated by OKT-3 and Raiji cells.
In addition, the plasmid of human PD-L1 was transfected into Raji cells to obtain a cell line capable of stably expressing PD-L1. Jurkat/NF-κB-luc/PD1 cells and Raji-PD-L1 cells were then cocultured and stimulated with OKT-3. On this basis, the compounds were added, and the enhancement of the signal pathway of T cell activation by the inhibitory effect of the compounds on the interaction between PD-1 and PD-L1 was evaluated by readings of reporter gene responses. The specific experimental process was as follows:
2. 20 μL of Raji-PD-L1 cell suspension was added to each well with 5*10^4 cells for each well, and was incubated in an incubator for 20 min;
3. 20 μL of Jurkat/NF-κb-luc/PD-1 cell suspension was added to each well with 5*10^4 cells for each well, and well mixed, and 6 hrs later, Bright-glo (Promega, E2620) was applied and plates were read on Envision;
4. the reading of each well treated with the compound was compared with the reading of each well treated with DMSO to obtain the activation fold of the compound; and
5. EC50 values of compounds and positive compounds of the examples of the present invention were determined by non-linear regression analysis of activation folds at different compound concentrations.
In general terms: A reporter such as luciferase makes a cellular process visible.

SMILES strings stand for the structures.

Sequence of interaction between PD-1 and PD-L1 expressed on cell surfaces (Q9NZQ7 19-290): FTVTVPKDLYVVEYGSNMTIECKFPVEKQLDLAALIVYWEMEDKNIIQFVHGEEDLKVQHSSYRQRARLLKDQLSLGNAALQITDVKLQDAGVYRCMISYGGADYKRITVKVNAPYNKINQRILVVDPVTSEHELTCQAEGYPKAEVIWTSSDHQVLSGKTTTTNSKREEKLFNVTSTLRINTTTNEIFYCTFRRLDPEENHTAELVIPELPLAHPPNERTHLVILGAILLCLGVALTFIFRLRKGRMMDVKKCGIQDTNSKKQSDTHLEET
Sequence of interaction between PD-1 and PD-L1 (Q9NZQ7 19-238): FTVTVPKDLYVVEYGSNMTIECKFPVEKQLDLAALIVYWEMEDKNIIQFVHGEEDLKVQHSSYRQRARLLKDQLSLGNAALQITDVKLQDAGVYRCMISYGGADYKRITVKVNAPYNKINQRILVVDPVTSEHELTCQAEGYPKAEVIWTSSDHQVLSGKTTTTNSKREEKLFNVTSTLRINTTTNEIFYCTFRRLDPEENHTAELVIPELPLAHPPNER

In general, IC50 refers to the concentration at which inhibition is half-maximal. One may read the EC50 as the concentration at which the effect is half-maximal. For the compound `COc1cc(C(=O)Nc2cccc(-c3cccc(NC(=O)c4cc(OC)c(CN5CC[C@@H](O)C5)cn4)c3C)c2C)ncc1CN1CC[C@@H](O)C1` [Example 47, N,N'-(2,2′-dimethyl-[1,1′-biphenyl]-3,3′-diyl)bis(5-(((R)-3-hydroxypyrrolidin-1-yl)methyl)-4-methoxypicolinamide)], the IC50 in experiment [1] stood at 0.27 nM. Besides, in experiment [2], the EC50 is 46 nM.
With `COc1cc(C(=O)Nc2cccc(-c3cccc(NC(=O)c4cc(OC)c(CN5CC[C@H](O)C5)cn4)c3C)c2C)ncc1CN1CC[C@H](O)C1` [Example 48, N,N'-(2,2′-dimethyl-[1,1′-biphenyl]-3,3′-diyl)bis(5-(((S)-3-hydroxypyrrolidin-1-yl)methyl)-4-methoxypicolinamide)], in experiment [1], the IC50 worked out at 0.31 nM. The EC50 in experiment [2] came to 102 nM.
The matching figures for `COc1cc(C(=O)Nc2cccc(-c3cccc(NC(=O)c4cc(OC)c(CN5CCC(O)CC5)cn4)c3C)c2C)ncc1CN1CCC(O)CC1` [Example 49, N,N'-(2,2′-dimethyl-[1,1′-biphenyl]-3,3′-diyl)bis(5-((4-hydroxypiperidin-l-yl)methyl)-4-methoxypicolinamide)]: 0.33 nM and 104 nM.
For `COc1cc(C(=O)Nc2cccc(-c3cccc(NC(=O)c4cc(OC)c(CN5CC[C@@H](OC)C5)cn4)c3C)c2C)ncc1CN1CC[C@@H](OC)C1` [Example 50, N,N'-(2,2′-dimethyl-[1,1′-biphenyl]-3,3′-diyl)bis(4-methoxy-5-(((R)-3-methoxypyrrolidin-1-yl)methyl)picolinamide)], the IC50 in experiment [1] came to 0.33 nM. Also, the EC50 in experiment [2] is 229 nM.
With `COc1cc(C(=O)Nc2cccc(-c3cccc(NC(=O)c4cc(OC)c(CN5CC(OC)C5)cn4)c3C)c2C)ncc1CN1CC(OC)C1` [Example 51, N,N'-(2,2′-dimethyl-[1,1′-biphenyl]-3,3′-diyl)bis(4-methoxy-5-((3-methoxyazetidin-1-yl)methyl)picolinamide)], in experiment [1], the IC50 is 0.22 nM. Also, the EC50 in experiment [2] was found to be 288 nM.
Take `COc1cc(C(=O)Nc2cccc(-c3cccc(NC(=O)c4cc(OC)c(CN5CC(C)(OC)C5)cn4)c3C)c2C)ncc1CN1CC(C)(OC)C1` [Example 52, N,N'-(2,2′-dimethyl-[1,1′-biphenyl]-3,3′-diyl)bis(4-methoxy-5-((3-methoxy-3-methylazetidin-1-yl)methyl)picolinamide)]: the half-inhibitory concentration (IC50) in experiment [1] was determined as 0.4 nM. In experiment [2], the EC50 was determined as 508 nM.
With `COc1cc(C(=O)Nc2cccc(-c3cccc(NC(=O)c4cc(OC)c(CN[C@H]5C[C@@H](O)C5)cn4)c3C)c2C)ncc1CN[C@H]1C[C@@H](O)C1` [Example 53, N,N'-(2,2′-dimethyl-[1,1′-biphenyl]-3,3′-diyl)bis(5-((((1s,3s)-3-hydroxycyclobutyl)amino)methyl)-4-methoxypicolinamide)], the IC50 in experiment [1] turned out to be 0.15 nM. Further, the EC50 in experiment [2] was found to be 52 nM.
With `COc1cc(C(=O)Nc2cccc(-c3cccc(NC(=O)c4cc(OC)c(CNC5COC5)cn4)c3C)c2C)ncc1CNC1COC1` [Example 54, N,N'-(2,2′-dimethyl-[1,1′-biphenyl]-3,3′-diyl)bis(4-methoxy-5-((oxetan-3-ylamino)methyl)picolinamide)], the IC50 in experiment [1] was found to be 0.21 nM. For the same compound, in experiment [2], the EC50 was found to be 4770 nM.
In the case of `COc1cc(C(=O)Nc2cccc(-c3cccc(NC(=O)c4cc(OC)c(CN[C@H]5CCOC5)cn4)c3C)c2C)ncc1CN[C@H]1CCOC1` [Example 55, N,N'-(2,2′-dimethyl-[1,1′-biphenyl]-3,3′-diyl)bis(4-methoxy-5-((((S)-tetrahydrofuran-3-yl)amino)methyl)picolinamide)], the IC50 in experiment [1] turned out to be 0.4 nM. Further, the EC50 in experiment [2] is 82 nM.
On to `COc1cc(C(=O)Nc2cccc(-c3cccc(NC(=O)c4cc(OC)c(CN[C@@H]5CCOC5)cn4)c3C)c2C)ncc1CN[C@@H]1CCOC1` [Example 56, N,N'-(2,2′-dimethyl-[1,1′-biphenyl]-3,3′-diyl)bis(4-methoxy-5-((((R)-tetrahydrofuran-3-yl)amino)methyl)picolinamide)], for which the IC50 in experiment [1] was found to be 0.64 nM. The EC50 in experiment [2] came out at 172 nM.
For `COc1cc(C(=O)Nc2cccc(-c3cccc(NC(=O)c4cc(OC)c(CN5CC6(COC6)C5)cn4)c3C)c2C)ncc1CN1CC2(COC2)C1` [Example 58, N,N'-(2,2′-dimethyl-[1,1′-biphenyl]-3,3′-diyl)bis(5-((2-oxa-6-azaspiro[3.3]heptan-6-yl)methyl)-4-methoxypicolinamide)], in that order: 0.22 nM and 625 nM.
For the compound `COc1cc(C(=O)Nc2cccc(-c3cccc(NC(=O)c4cc(OC)c(CNC[C@@H](O)CC(=O)O)cn4)c3C)c2C)ncc1CNC[C@@H](O)CC(=O)O` [Example 59], the IC50 in experiment [1] came to 0.31 nM. The EC50 in experiment [2] is 70 nM.
For the compound `COc1cc(C(=O)Nc2cccc(-c3cccc(NC(=O)c4cc(OC)c(CN[C@H]5C[C@@H](C(=O)O)C5)cn4)c3C)c2C)ncc1CN[C@H]1C[C@@H](C(=O)O)C1` [Example 60, (1s,1′s,3s,3′s)-3,3′-((((((2,2′-dimethyl-[1,1′-biphenyl]-3,3′-diyl)bis(azanediyl))bis(carbonyl))bis(4-methoxypyridine-6,3-diyl))bis(methylene))bis(azanediyl))bis (cyclobutane-1-carboxylic acid)], the IC50 in experiment [1] amounted to 0.034 nM. Further, the half-maximal effective concentration (EC50) in experiment [2] was 580 nM.
Regarding `COc1cc(C(=O)Nc2cccc(-c3cccc(NC(=O)c4cc(OC)c(CN5CCC[C@H]5C(=O)O)cn4)c3C)c2C)ncc1CN1CCC[C@H]1C(=O)O` [Example 61, (2′S)-(((((2,2′-dimethyl-[1,1′-biphenyl]-3,3′-diyl)bis(azanediyl))bis(carbonyl))bis(4-methoxypyridine-6,3-diyl))bis(methylene))di-L-proline], the IC50 in experiment [1] turned out to be 0.18 nM. Also, the EC50 in experiment [2] came to 319 nM.
Take `COc1cc(C(=O)Nc2cccc(-c3cccc(NC(=O)c4cc(OC)c(CN5C[C@H](O)C[C@H]5C(=O)O)cn4)c3C)c2C)ncc1CN1C[C@H](O)C[C@H]1C(=O)O` [Example 62, (2S,2′S,4R,4′R)-1,1′-(((((2,2′-dimethyl-[1,1′-biphenyl]-3,3′-diyl)bis(azanediyl))bis(carbonyl))bis (4-methoxypyridine-6,3-diyl))bis (methylene))bis(4-hydroxypyrrolidine-2-carboxylic acid)]: the IC50 in experiment [1] stood at 0.25 nM. Moreover, in experiment [2], the EC50 is 639 nM.
In the case of `COc1cc(C(=O)Nc2cccc(-c3cccc(NC(=O)c4cc(OC)c(CN5CCOC[C@H]5C(=O)O)cn4)c3C)c2C)ncc1CN1CCOC[C@H]1C(=O)O` [Example 63, (3S,3′S)-4,4′(((((2,2′-dimethyl-[1,1′-biphenyl]-3-3′-diyl)bis(azanediyl))bis (carbonyl))bis(4-methoxypyridine-6,3-diyl))bis(methylene))bis(morpholine-3-carboxylic acid)], the IC50 in experiment [1] was determined as 0.25 nM. In experiment [2], the EC50 came out at 4600 nM.
Turning to `COC(=O)CNCc1cnc(C(=O)Nc2cccc(-c3cccc(NC(=O)c4cc(OC)c(CNCC(=O)OC)cn4)c3C)c2C)cc1OC` [Example 66], the IC50 in experiment [1] was 0.64 nM. Further, the concentration for a half-maximal effect (EC50) in experiment [2] came to 691 nM.
The matching figures for `COc1cc(C(=O)Nc2cccc(-c3cccc(NC(=O)c4cc(OC)c(CNCC(=O)O)cn4)c3C)c2C)ncc1CNCC(=O)O` [Example 67]: 0.51 nM and 349 nM.
Regarding `COc1cc(C(=O)Nc2cccc(-c3cccc(NC(=O)c4cc(OC)c(CN[C@H]5CCOC5=O)cn4)c3C)c2C)ncc1CN[C@H]1CCOC1=O` [Example 68], in experiment [1], the IC50 was 0.31 nM. Besides, the EC50 in experiment [2] amounted to 261 nM.
The matching figures for `COc1cc(C(=O)Nc2cccc(-c3cccc(NC(=O)c4cc(OC)c(CN[C@@H](CCO)C(=O)O)cn4)c3C)c2C)ncc1CN[C@@H](CCO)C(=O)O` [Example 69]: 0.39 nM and 105 nM.
Turning to `COc1cc(C(=O)Nc2cccc(-c3cccc(NC(=O)c4cc(OC)c(CN[C@@H]5CCOC5=O)cn4)c3C)c2C)ncc1CN[C@@H]1CCOC1=O` [Example 70, N,N'-(2,2′-dimethyl-[1,1′-biphenyl]-3,3′-diyl)bis(4-methoxy-5-((((R)-2-oxotetrahydrofuran-3-yl)amino)methyl)picolinamide)], the IC50 in experiment [1] was determined as 0.54 nM. In addition, in experiment [2], the EC50 is 2200 nM.
